Where a SMILES comes first, the peptide text is derived from it. Bridges are numbered along the chain shown (N, C = ends). [ ]: non-standard residue; d: D form. Phe(4-COOH) = N[C@@H](Cc1ccc(C(=O)O)cc1)C(=O)O
How the values were obtained:
[1] = test system: Plasma; assay: Stability in human plasma at 1000 ng/mL at 37 degC; format: ADME, cell-free
[2] = target: T1, Glucagon-like peptide 1 receptor (Homo sapiens, UniProt P43220); assay: Agonist activity at human GLP1R expressed in CHO cells assessed as increase in cAMP level by cAMP-response element/luciferase activation assay; format: functional, cell-based
T1 sequence (P43220 whole entry): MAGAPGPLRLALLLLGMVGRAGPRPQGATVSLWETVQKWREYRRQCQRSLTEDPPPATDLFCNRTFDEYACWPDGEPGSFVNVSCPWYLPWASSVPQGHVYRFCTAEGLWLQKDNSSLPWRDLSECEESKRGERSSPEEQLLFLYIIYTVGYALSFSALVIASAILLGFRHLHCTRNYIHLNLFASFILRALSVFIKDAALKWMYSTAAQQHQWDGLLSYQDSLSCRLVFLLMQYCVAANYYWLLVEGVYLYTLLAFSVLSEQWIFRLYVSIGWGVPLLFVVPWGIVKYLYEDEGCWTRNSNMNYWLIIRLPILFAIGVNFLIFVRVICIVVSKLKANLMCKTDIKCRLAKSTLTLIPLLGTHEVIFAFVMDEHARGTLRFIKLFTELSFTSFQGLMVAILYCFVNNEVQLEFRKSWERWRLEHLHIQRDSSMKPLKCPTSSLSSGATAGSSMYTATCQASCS

[3] = target: T1, Glucagon-like peptide 1 receptor; assay: Displacement of [125I]GLP1 from human GLP1R expressed in CHOK1 cells; format: cell-based, CHO-K1

Structure (SMILES) | EC50 [2] | IC50 [3] | Stability [1]
CC[C@H](C)[C@H](NC(=O)[C@H](Cc1ccccc1)NC(=O)[C@H](CCC(=O)O)NC(=O)[C@H](CCCCN)NC(=O)[C@H](C)NC(=O)[C@H](C)NC(=O)[C@H](CCC(N)=O)NC(=O)[C@@H]1CCCCNC(=O)CC[C@H](NC(=O)[C@H](CO)NC(=O)[C@@H](NC(=O)[C@H](CC(=O)O)NC(=O)[C@H](CO)NC(=O)[C@@H](NC(=O)[C@H](Cc2ccccc2)NC(=O)[C@@H](NC(=O)CNC(=O)[C@H](CCC(=O)O)NC(=O)CNC(=O)[C@@H](N)Cc2cnc[nH]2)[C@@H](C)O)[C@@H](C)O)C(C)C)C(=O)N[C@@H](Cc2ccc(O)cc2)C(=O)N[C@@H](CC(C)C)C(=O)N[C@@H](CCC(=O)O)C(=O)N1)C(=O)N[C@@H](C)C(=O)N[C@@H](Cc1c[nH]c2ccccc12)C(=O)N[C@@H](CC(C)C)C(=O)N[C@H](C(=O)N[C@@H](CCCCN)C(=O)NCC(=O)N[C@@H](CCCNC(=N)N)C(=O)NCC(N)=O)C(C)C (H-HGEGTFTSDVSEYLEKQAAKEFIAWLVKGRG-NH2; lactam 12-16) | 0.006 nM | 3.6 nM | Stable
CC[C@H](C)[C@@H]1NC(=O)[C@H](Cc2ccccc2)NC(=O)[C@H](CCC(=O)O)NC(=O)[C@@H](NC(=O)[C@H](C)NC(=O)[C@H](C)NC(=O)[C@H](CCC(N)=O)NC(=O)CNC(=O)[C@H](CCC(=O)O)NC(=O)[C@H](CC(C)C)NC(=O)[C@H](Cc2ccc(O)cc2)NC(=O)[C@H](CO)NC(=O)[C@H](CO)NC(=O)[C@@H](NC(=O)[C@H](CC(=O)O)NC(=O)[C@H](CO)NC(=O)[C@@H](NC(=O)[C@H](Cc2ccccc2)NC(=O)[C@@H](NC(=O)CNC(=O)[C@H](CCC(=O)O)NC(=O)CNC(=O)[C@@H](N)Cc2cnc[nH]2)[C@@H](C)O)[C@@H](C)O)C(C)C)CCC(=O)NCCCC[C@@H](C(=O)N[C@@H](Cc2c[nH]c3ccccc23)C(=O)N[C@@H](CC(C)C)C(=O)N[C@H](C(=O)N[C@@H](CCCCN)C(=O)NCC(=O)N[C@@H](CCCNC(=N)N)C(=O)NCC(N)=O)C(C)C)NC1=O | 0.024 nM | 16 nM | 
CC[C@H](C)[C@H](NC(=O)[C@H](Cc1ccccc1)NC(=O)[C@H](CCC(=O)O)NC(=O)[C@H](CCCCN)NC(=O)[C@H](C)NC(=O)[C@H](C)NC(=O)[C@@H]1CCCCNC(=O)CC[C@H](NC(=O)[C@H](CO)NC(=O)[C@H](CO)NC(=O)[C@@H](NC(=O)[C@H](CC(=O)O)NC(=O)[C@H](CO)NC(=O)[C@@H](NC(=O)[C@H](Cc2ccccc2)NC(=O)[C@@H](NC(=O)CNC(=O)[C@H](CCC(=O)O)NC(=O)CNC(=O)[C@@H](N)Cc2c[nH]cn2)[C@@H](C)O)[C@@H](C)O)C(C)C)C(=O)N[C@@H](CC(C)C)C(=O)N[C@@H](CCC(=O)O)C(=O)NCC(=O)N1)C(=O)N[C@@H](C)C(=O)N[C@@H](Cc1c[nH]c2ccccc12)C(=O)N[C@@H](CC(C)C)C(=O)N[C@H](C(=O)N[C@@H](CCCCN)C(=O)NCC(=O)N[C@@H](CCCNC(=N)N)C(=O)NCC(N)=O)C(C)C (H-HGEGTFTSDVSSELEGKAAKEFIAWLVKGRG-NH2; lactam 13-17) | 0.077 nM | 17 nM | 
CC[C@H](C)[C@H](NC(=O)[C@H](Cc1ccccc1)NC(=O)[C@H](CCC(=O)O)NC(=O)[C@@H]1CCCCNC(=O)c2ccc(cc2)C[C@H](NC(=O)[C@H](CO)NC(=O)[C@H](CO)NC(=O)[C@@H](NC(=O)[C@H](CC(=O)O)NC(=O)[C@H](CO)NC(=O)[C@@H](NC(=O)[C@H](Cc2ccccc2)NC(=O)[C@@H](NC(=O)CNC(=O)[C@H](CCC(=O)O)NC(=O)CNC(=O)[C@@H](N)Cc2c[nH]cn2)[C@@H](C)O)[C@@H](C)O)C(C)C)C(=O)N[C@@H](CC(C)C)C(=O)N[C@@H](CCC(=O)O)C(=O)NCC(=O)N[C@@H](CCC(N)=O)C(=O)N[C@@H](C)C(=O)N[C@@H](C)C(=O)N1)C(=O)N[C@@H](C)C(=O)N[C@@H](Cc1c[nH]c2ccccc12)C(=O)N[C@@H](CC(C)C)C(=O)N[C@H](C(=O)N[C@@H](CCCCN)C(=O)NCC(=O)N[C@@H](CCCNC(=N)N)C(=O)NCC(N)=O)C(C)C (H-HGEGTFTSDVSS[Phe(4-COOH)]LEGQAAKEFIAWLVKGRG-NH2; lactam 13-20) | 9 nM | 2000 nM | 
CC[C@H](C)[C@H](NC(=O)[C@H](Cc1ccccc1)NC(=O)[C@H](CCC(=O)O)NC(=O)[C@@H]1CCC(=O)NCCCC[C@H](NC(=O)[C@H](CCC(=O)O)NC(=O)[C@H](CC(C)C)NC(=O)[C@H](Cc2ccc(O)cc2)NC(=O)[C@H](CO)NC(=O)[C@H](CO)NC(=O)[C@@H](NC(=O)[C@H](CC(=O)O)NC(=O)[C@H](CO)NC(=O)[C@@H](NC(=O)[C@H](Cc2ccccc2)NC(=O)[C@@H](NC(=O)CNC(=O)[C@H](CCC(=O)O)NC(=O)CNC(=O)[C@@H](N)Cc2c[nH]cn2)[C@@H](C)O)[C@@H](C)O)C(C)C)C(=O)N[C@@H](CCC(N)=O)C(=O)N[C@@H](C)C(=O)N[C@@H](C)C(=O)N1)C(=O)N[C@@H](C)C(=O)N[C@@H](Cc1c[nH]c2ccccc12)C(=O)N[C@@H](CC(C)C)C(=O)N[C@H](C(=O)N[C@@H](CCCCN)C(=O)NCC(=O)N[C@@H](CCCNC(=N)N)C(=O)NCC(N)=O)C(C)C (H-HGEGTFTSDVSSYLEKQAAEEFIAWLVKGRG-NH2; lactam 16-20) | 0.008 nM | 2.7 nM | 
CC(C)C[C@H](NC(=O)[C@H](Cc1ccc(O)cc1)NC(=O)[C@H](CO)NC(=O)[C@H](CO)NC(=O)[C@@H](NC(=O)[C@H](CC(=O)O)NC(=O)[C@H](CO)NC(=O)[C@@H](NC(=O)[C@H](Cc1ccccc1)NC(=O)[C@@H](NC(=O)CNC(=O)[C@H](CCC(=O)O)NC(=O)CNC(=O)[C@@H](N)Cc1c[nH]cn1)[C@@H](C)O)[C@@H](C)O)C(C)C)C(=O)N[C@@H](CCC(=O)O)C(=O)NCC(=O)N[C@@H](CCC(N)=O)C(=O)N[C@@H](C)C(=O)N[C@H]1CCC(=O)NCCCC[C@@H](C(=O)N[C@@H](C)C(=O)N[C@@H](Cc2c[nH]c3ccccc23)C(=O)N[C@@H](CC(C)C)C(=O)N[C@H](C(=O)N[C@@H](CCCCN)C(=O)NCC(=O)N[C@@H](CCCNC(=N)N)C(=O)NCC(N)=O)C(C)C)NC(=O)[C@H](Cc2ccccc2)NC(=O)[C@H](CCC(=O)O)NC(=O)[C@H](CCCCN)NC1=O (H-HGEGTFTSDVSSYLEGQAEKEFKAWLVKGRG-NH2; lactam 19-23) | 15 nM | > 1000 nM | 
CC[C@H](C)[C@H](NC(=O)[C@H](Cc1ccccc1)NC(=O)[C@H](CCC(=O)O)NC(=O)[C@H](CCCCN)NC(=O)[C@H](C)NC(=O)[C@H](C)NC(=O)[C@H](CCC(N)=O)NC(=O)C(C)(C)NC(=O)[C@H](CCC(=O)O)NC(=O)[C@H](CC(C)C)NC(=O)[C@H](Cc1ccc(O)cc1)NC(=O)[C@H](CO)NC(=O)[C@H](CO)NC(=O)[C@@H](NC(=O)[C@H](CC(=O)O)NC(=O)[C@H](CO)NC(=O)[C@@H](NC(=O)[C@H](Cc1ccccc1)NC(=O)[C@@H](NC(=O)CNC(=O)[C@H](CCC(=O)O)NC(=O)CNC(=O)[C@@H](N)Cc1c[nH]cn1)[C@@H](C)O)[C@@H](C)O)C(C)C)C(=O)N[C@@H](C)C(=O)N[C@@H](Cc1c[nH]c2ccccc12)C(=O)N[C@@H](CC(C)C)C(=O)N[C@H](C(=O)N[C@@H](CCCCN)C(=O)NCC(=O)N[C@@H](CCCNC(=N)N)C(=O)NCC(N)=O)C(C)C |  | 2.9 nM | Stable

Second part, led by results:

EC50 [2] | IC50 [3] | Structure (SMILES) | Stability [1]
0.14 nM | 64 nM | CC[C@H](C)[C@H](NC(=O)[C@H](Cc1ccccc1)NC(=O)[C@H](CCC(=O)O)NC(=O)[C@@H]1CCCCNC(=O)C[C@H](NC(=O)[C@H](CCC(=O)O)NC(=O)[C@H](CC(C)C)NC(=O)[C@H](Cc2ccc(O)cc2)NC(=O)[C@H](CO)NC(=O)[C@H](CO)NC(=O)[C@@H](NC(=O)[C@H](CC(=O)O)NC(=O)[C@H](CO)NC(=O)[C@@H](NC(=O)[C@H](Cc2ccccc2)NC(=O)[C@@H](NC(=O)CNC(=O)[C@H](CCC(=O)O)NC(=O)CNC(=O)[C@@H](N)Cc2c[nH]cn2)[C@@H](C)O)[C@@H](C)O)C(C)C)C(=O)N[C@@H](CCC(N)=O)C(=O)N[C@@H](C)C(=O)N[C@@H](C)C(=O)N1)C(=O)N[C@@H](C)C(=O)N[C@@H](Cc1c[nH]c2ccccc12)C(=O)N[C@@H](CC(C)C)C(=O)N[C@H](C(=O)N[C@@H](CCCCN)C(=O)NCC(=O)N[C@@H](CCCNC(=N)N)C(=O)NCC(N)=O)C(C)C (H-HGEGTFTSDVSSYLEDQAAKEFIAWLVKGRG-NH2; lactam 16-20) | 
1.8 nM | > 500 nM | CC[C@H](C)[C@H](NC(=O)[C@H](Cc1ccccc1)NC(=O)[C@H](CCC(=O)O)NC(=O)[C@@H]1CCCCNC(=O)CC[C@H](NC(=O)[C@H](CCC(=O)O)NC(=O)[C@H](CC(C)C)NC(=O)[C@H](Cc2ccc(O)cc2)NC(=O)[C@H](CO)NC(=O)[C@H](CO)NC(=O)[C@@H](NC(=O)[C@H](CC(=O)O)NC(=O)[C@H](CO)NC(=O)[C@@H](NC(=O)[C@H](Cc2ccccc2)NC(=O)[C@@H](NC(=O)CNC(=O)[C@H](CCC(=O)O)NC(=O)CNC(=O)[C@@H](N)Cc2c[nH]cn2)[C@@H](C)O)[C@@H](C)O)C(C)C)CC(=O)N[C@@H](CCC(N)=O)C(=O)N[C@@H](C)C(=O)N[C@@H](C)C(=O)N1)C(=O)N[C@@H](C)C(=O)N[C@@H](Cc1c[nH]c2ccccc12)C(=O)N[C@@H](CC(C)C)C(=O)N[C@H](C(=O)N[C@@H](CCCCN)C(=O)NCC(=O)N[C@@H](CCCNC(=N)N)C(=O)NCC(N)=O)C(C)C | 
0.004 nM | 6.2 nM | CC[C@H](C)[C@H](NC(=O)[C@H](Cc1ccccc1)NC(=O)[C@H](CCC(=O)O)NC(=O)[C@@H]1CCCCNC(=O)CCC[C@H](NC(=O)[C@H](CCC(=O)O)NC(=O)[C@H](CC(C)C)NC(=O)[C@H](Cc2ccc(O)cc2)NC(=O)[C@H](CO)NC(=O)[C@H](CO)NC(=O)[C@@H](NC(=O)[C@H](CC(=O)O)NC(=O)[C@H](CO)NC(=O)[C@@H](NC(=O)[C@H](Cc2ccccc2)NC(=O)[C@@H](NC(=O)CNC(=O)[C@H](CCC(=O)O)NC(=O)CNC(=O)[C@@H](N)Cc2c[nH]cn2)[C@@H](C)O)[C@@H](C)O)C(C)C)C(=O)N[C@@H](CCC(N)=O)C(=O)N[C@@H](C)C(=O)N[C@@H](C)C(=O)N1)C(=O)N[C@@H](C)C(=O)N[C@@H](Cc1c[nH]c2ccccc12)C(=O)N[C@@H](CC(C)C)C(=O)N[C@H](C(=O)N[C@@H](CCCCN)C(=O)NCC(=O)N[C@@H](CCCNC(=N)N)C(=O)NCC(N)=O)C(C)C | 

Reference: ChEMBL document CHEMBL1150266, “Design and synthesis of conformationally constrained glucagon-like peptide-1 derivatives with increased plasma stability and prolonged in vivo activity” (J Med Chem, 2008)
